Experimental data as given in patent US20220323446A1 (Amgen Inc., priority 2021, published 2022).

What was measured:
P-gp [1] = molecular target: T1, P-gp (Homo sapiens, UniProt P08183)
Experimental: (§1) Blood samples for digoxin PK were collected predose and up to 144 hours post-digoxin dose. Samples were measured using validated high-performance liquid chromatography tandem mass spectrometry methods. PK parameters were estimated using non-compartmental methods.

P-gp [2] = molecular target: T1, P-gp; experiment: clinical; settings: plasma, 0.5 mg
Experimental: as §1

CYP3A4 = CYP3A4 (Homo sapiens, UniProt P08684); experiment: Phase 1 interaction study, midazolam (CYP3A4 substrate) with sotorasib; settings: 2 mg midazolam with 960 mg sotorasib after 14 days daily sotorasib vs midazolam alone
[3] = 0.5 mg digoxin, 960 mg sotorasib
[4] = with a single dose of sotorasib vs digoxin alone

T1 sequence (P08183 whole entry): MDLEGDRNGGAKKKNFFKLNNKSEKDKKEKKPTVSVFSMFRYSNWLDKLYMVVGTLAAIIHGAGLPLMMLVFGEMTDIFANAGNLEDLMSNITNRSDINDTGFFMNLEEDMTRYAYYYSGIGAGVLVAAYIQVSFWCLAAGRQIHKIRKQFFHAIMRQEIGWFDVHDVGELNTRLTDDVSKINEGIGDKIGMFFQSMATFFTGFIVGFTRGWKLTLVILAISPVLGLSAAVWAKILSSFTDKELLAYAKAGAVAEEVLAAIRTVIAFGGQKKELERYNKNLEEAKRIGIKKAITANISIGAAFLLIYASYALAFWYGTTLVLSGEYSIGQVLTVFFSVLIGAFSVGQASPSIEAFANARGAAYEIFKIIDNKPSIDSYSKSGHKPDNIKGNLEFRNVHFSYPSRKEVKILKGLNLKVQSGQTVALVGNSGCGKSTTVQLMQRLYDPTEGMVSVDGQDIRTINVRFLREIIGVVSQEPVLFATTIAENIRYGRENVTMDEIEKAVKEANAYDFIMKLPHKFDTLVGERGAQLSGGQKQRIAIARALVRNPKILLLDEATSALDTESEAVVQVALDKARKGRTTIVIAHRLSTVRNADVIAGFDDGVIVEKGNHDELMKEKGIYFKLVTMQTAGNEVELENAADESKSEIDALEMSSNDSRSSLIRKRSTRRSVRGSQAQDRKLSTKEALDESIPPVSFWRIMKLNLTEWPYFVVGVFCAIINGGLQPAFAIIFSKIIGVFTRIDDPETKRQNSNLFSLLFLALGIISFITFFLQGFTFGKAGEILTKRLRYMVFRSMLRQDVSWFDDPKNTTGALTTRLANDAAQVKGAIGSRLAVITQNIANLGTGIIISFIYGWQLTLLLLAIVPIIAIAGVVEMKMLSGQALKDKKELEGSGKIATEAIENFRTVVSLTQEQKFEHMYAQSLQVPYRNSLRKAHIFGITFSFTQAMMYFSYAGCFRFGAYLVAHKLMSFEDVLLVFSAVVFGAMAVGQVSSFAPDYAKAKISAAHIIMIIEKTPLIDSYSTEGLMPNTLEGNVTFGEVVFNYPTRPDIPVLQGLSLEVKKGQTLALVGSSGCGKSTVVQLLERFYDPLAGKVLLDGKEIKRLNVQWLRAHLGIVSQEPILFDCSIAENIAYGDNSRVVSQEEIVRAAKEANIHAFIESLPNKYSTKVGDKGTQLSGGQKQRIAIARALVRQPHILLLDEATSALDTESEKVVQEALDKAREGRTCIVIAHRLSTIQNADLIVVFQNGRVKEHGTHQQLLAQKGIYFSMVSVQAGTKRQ
Chain of CYP3A4 (P08684 whole entry): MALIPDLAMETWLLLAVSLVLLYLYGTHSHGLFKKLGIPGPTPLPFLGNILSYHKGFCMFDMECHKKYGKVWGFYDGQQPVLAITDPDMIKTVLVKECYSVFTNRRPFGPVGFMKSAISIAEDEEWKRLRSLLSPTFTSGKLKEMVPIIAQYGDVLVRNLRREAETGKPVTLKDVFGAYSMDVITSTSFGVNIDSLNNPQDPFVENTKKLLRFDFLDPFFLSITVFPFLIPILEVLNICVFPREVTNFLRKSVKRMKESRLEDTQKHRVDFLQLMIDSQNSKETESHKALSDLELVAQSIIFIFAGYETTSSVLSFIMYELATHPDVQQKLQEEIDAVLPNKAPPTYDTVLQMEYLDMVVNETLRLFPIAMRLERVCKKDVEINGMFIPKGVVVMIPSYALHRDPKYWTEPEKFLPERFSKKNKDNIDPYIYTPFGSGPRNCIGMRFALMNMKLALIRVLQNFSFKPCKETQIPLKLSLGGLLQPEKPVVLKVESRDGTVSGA

Compound	Digoxin mean terminal half-life (t1/2) with sotorasib compared to alone (P-gp [1]; [3])	Digoxin median time to maximal plasma concentration (tmax) with sotorasib compared to alone (P-gp [1]; [3])	safety and tolerability (P-gp [1]; single doses of 0.5 mg digoxin alone or with 960 mg sotorasib)	increase of digoxin AUCinf (P-gp [1]; [4])	increase of digoxin Cmax (P-gp [1]; [4]) [%]	AUC(0-inf) (P-gp [2]) [ng·h/mL]	Cmax (P-gp [2]) [ng/mL]	decrease of midazolam AUV (CYP3A4) [%]	decrease of midazolam Cmax (CYP3A4) [%]
C[C@H]1O[C@@H](O[C@H]2[C@@H](O)C[C@H](O[C@H]3[C@@H](O)C[C@H](O[C@H]4CC[C@@]5(C)[C@H](CC[C@@H]6[C@@H]5C[C@@H](O)[C@]5(C)[C@@H](C7=CC(=O)OC7)CC[C@]65O)C4)O[C@@H]3C)O[C@@H]2C)C[C@H](O)[C@@H]1O [digoxin]	similar	similar	safe and well tolerated	approximately 21%	~91	33.2	1.9	–	–
Cc1ncc2n1-c1ccc(Cl)cc1C(c1ccccc1F)=NC2 [midazolam]	–	–	–	–	–	–	–	53	48
